Where two headings read alike, the source gives them in different places.
Assays:
[1] = system: cellular dehydrogenase activity; settings: Conc 20 μM; for MTT (composite Z-score): normalized score vs mock-treated (DMSO) wells
reactive oxygen species = assay type: cell-based, mouse; settings: Conc 20 μM; for ROS (composite Z-score): normalized score vs mock-treated (DMSO) wells
mtOXPHOS transcripts = assay type: cell-based, mouse; settings: Conc 20 μM; for mitoOX (composite Z-score): normalized score vs mock-treated (DMSO) wells
C2C12 myotubes = settings: Conc 20 μM; for Viability (composite Z-score): normalized score vs mock-treated (DMSO) wells
nuOXPHOS transcripts = assay type: cell-based, mouse; settings: Conc 20 μM; for nucOX (composite Z-score): normalized score vs mock-treated (DMSO) wells
OXPHOS gene expression = assay type: cell-based, mouse; settings: Conc 20 μM; for GE-HTS (composite Z-score): normalized score vs mock-treated (DMSO) wells
[2] = system: mitochondrial membrane potential; assay type: cell-based, mouse; settings: Conc 20 μM; for ΔΨm (composite Z-score): normalized score vs mock-treated (DMSO) wells
cytochrome c = assay type: cell-based, mouse; settings: Conc 20 μM; for cyt c (composite Z-score): normalized score vs mock-treated (DMSO) wells
[3] = normalized composite Z-score vs mock-treated (DMSO) wells
[4] = composite Z-score vs DMSO wells

Structure (SMILES) | MTT ([1]; composite Z-score vs DMSO) | ROS (reactive oxygen species; composite Z-score vs DMSO) | mitoOX (mtOXPHOS transcripts; composite Z-score vs DMSO) | Viability (C2C12 myotubes; composite Z-score vs DMSO) | nucOX (nuOXPHOS transcripts; composite Z-score vs DMSO) | GE-HTS (OXPHOS gene expression; composite Z-score vs DMSO) | ΔΨm ([2]; composite Z-score vs DMSO) | cyt c (cytochrome c; composite Z-score vs DMSO) | MTT (composite Z-score) [1] | ROS (composite Z-score) (reactive oxygen species) | mitoOX (composite Z-score) (mtOXPHOS transcripts) | Viability (composite Z-score) (C2C12 myotubes) | nucOX (composite Z-score) (nuOXPHOS transcripts) | GE-HTS (composite Z-score) (OXPHOS gene expression) | ΔΨm (composite Z-score) [2] | cyt c (composite Z-score) (cytochrome c) | also measured
OC[C@H]1O[C@@H](n2cnc3c(NCc4ccco4)ncnc32)[C@H](O)[C@@H]1O [kinetin riboside] | −4.309 | −2.722 | 0.750 | −1.883 | 0.853 | 0.882 | −1.350 | −2.612 | – | – | – | – | – | – | – | – | –
COc1ccc(-c2coc3cc(O)ccc3c2=O)c(OC)c1O [koparin 2′-methyl ether] | −0.532 | 0.126 | −0.309 | 0.024 | −1.461 | −1.151 | −0.442 | 0.007 | – | – | – | – | – | – | – | – | –
COc1c(O)cc2c(-c3ccccc3)cc(=O)oc2c1OC [kuhlmannin] | – | – | – | – | – | – | – | – | −0.487 | 0.443 | 0.408 | 0.333 | 0.646 | 0.624 | 0.133 | −0.170 | –
NCCC(=O)c1ccccc1N [kynuramine] | – | – | – | – | – | – | – | – | – | – | – | – | – | – | – | – | MTT [1, 3]: −1.264; ROS (reactive oxygen species; [3]): 1.180; mitoOX (mtOXPHOS transcripts; [3]): 0.045; Viability (C2C12 myotubes; [3]): 0.319; nucOX (nuOXPHOS transcripts; [3]): 0.093; GE-HTS (OXPHOS gene expression; [3]): 0.070; ΔΨm [2, 3]: −0.127; cyt c (cytochrome c; [3]): 1.161
Nc1ccccc1C(=O)CC(N)C(=O)O (centres unmarked) [kynurenine] | – | – | – | – | – | – | – | – | – | – | – | – | – | – | – | – | MTT [1, 3]: −0.912; ROS (reactive oxygen species; [3]): 1.941; mitoOX (mtOXPHOS transcripts; [3]): 0.069; Viability (C2C12 myotubes; [3]): −0.110; nucOX (nuOXPHOS transcripts; [3]): −0.088; GE-HTS (OXPHOS gene expression; [3]): −0.039; ΔΨm [2, 3]: −0.058; cyt c (cytochrome c; [3]): 0.162
C[C@@H]1CC[C@H]2[C@](C)(CO)[C@@H](O)CC[C@]2(C)[C@@]12CC[C@@](CO)(CCO)O2 [lagochilin] | – | – | – | – | – | – | – | – | −0.238 | 0.962 | 0.128 | 0.043 | −0.036 | 0.002 | 0.277 | −0.862 | –
CC(=O)O[C@H]1C[C@H](O[C@H]2[C@@H](O)C[C@H](O[C@H]3[C@@H](O)C[C@H](O[C@H]4CC[C@@]5(C)[C@H](CC[C@@H]6[C@@H]5C[C@@H](O)[C@]5(C)[C@@H](C7=CC(=O)OC7)CC[C@]65O)C4)O[C@@H]3C)O[C@@H]2C)O[C@H](C)[C@H]1O[C@@H]1O[C@H](CO)[C@@H](O)[C@H](O)[C@H]1O [lanatoside C] | – | – | – | – | – | – | – | – | – | – | – | – | – | – | – | – | MTT [1, 4]: −0.887; ROS (reactive oxygen species; [4]): −0.033; mitoOX (mtOXPHOS transcripts; [4]): −0.935; Viability (C2C12 myotubes; [4]): −0.704; nucOX (nuOXPHOS transcripts; [4]): −0.844; GE-HTS (OXPHOS gene expression; [4]): −0.931; ΔΨm [2, 4]: −1.105; cyt c (cytochrome c; [4]): 0.664
CC(C)=CCC1=C(O)C(=O)c2ccccc2C1=O [lapachol] | – | – | – | – | – | – | – | – | – | – | – | – | – | – | – | – | MTT [1, 4]: −1.211; ROS (reactive oxygen species; [4]): −0.544; mitoOX (mtOXPHOS transcripts; [4]): −1.077; Viability (C2C12 myotubes; [4]): −0.409; nucOX (nuOXPHOS transcripts; [4]): −1.308; GE-HTS (OXPHOS gene expression; [4]): −1.316; ΔΨm [2, 4]: 0.035; cyt c (cytochrome c; [4]): 0.325
C=C[C@@](C)(O)CC[C@H]1C(=C)C[C@H](O)[C@H]2C(C)(C)CCC[C@]12C [larixol] | – | – | – | – | – | – | – | – | −0.221 | 1.068 | −0.552 | 0.085 | −0.466 | −0.507 | −0.141 | 0.944 | –
CC[C@@H](C(=O)[C@@H](C)[C@@H](O)[C@H](C)CCc1ccc(C)c(O)c1C(=O)O)[C@H]1O[C@](CC)([C@H]2CC[C@](O)(CC)[C@H](C)O2)C[C@@H]1C [lasalocid, reference compound] | −1.771 | −2.993 | −4.908 | −1.090 | 0.274 | −1.524 | −1.178 | −1.690 | – | – | – | – | – | – | – | – | –
